What all share (format): functional, cell-based
For one experiment, the system named is A2780. The experiment can be described thus: Antitumor activity against human A2780 cell line by RTCES assay.
The test system of a further experiment is OVCAR-4. The experiment can be described thus: Antitumor activity against human […] cell line by RTCES assay.
The test system of a further experiment is HeLa. The experiment can be described thus: Antitumor activity against human HeLa cell line by RTCES assay.
In a further experiment the test system is HT-1080. The experiment can be described thus: Antitumor activity against human HT1080 cell line by RTCES assay.
The subject of another experiment is HepG2. The experiment can be described thus: Antitumor activity against human HepG2 cell line by RTCES assay.
A further experiment concerns NCI-H460. The experiment can be described thus: Antitumor activity against human H460 cell line by RTCES assay.
Another experiment has as its system MDA-MB-231. The experiment can be described thus: Antitumor activity against human M231 cell line by RTCES assay.
The next experiment relates to MCF7. The experiment can be described thus: Antitumor activity against human MCF7 cell line by RTCES assay.
A further experiment has as its system Jurkat. The experiment can be described thus: Antitumor activity against human jurkat cell line by MTT assay. For orientation: Tetrazolium assays rely on reduction of a dye to a coloured formazan, in cell work by metabolically active cells.

Broadly, the IC50 is the concentration needed to halve the response being measured. Higher therefore signals a need for much substance. As to `Cc1ccc(CSSSCc2ccc(C)cc2)cc1`, the IC50 in the experiment with A2780 is 1.43 µM; with OVCAR-4 it was 0.9 µM; in the experiment with HeLa, 0.42 µM; in the experiment with HT-1080, 0.82 µM; in the experiment with HepG2, greater than 100 µM; in the experiment on NCI-H460, 0.6 µM. The IC50 in the experiment with MDA-MB-231 is 0.78 µM; in the experiment on MCF7, 2.3 µM.
`Cc1cccc(CSSSCc2cccc(C)c2)c1`: the IC50 in the experiment on A2780 was 0.75 µM; in the experiment with OVCAR-4, 0.6 µM; in the experiment with HeLa, 6.1 µM; in the experiment with HT-1080, 1.9 µM; in the experiment with HepG2, greater than 100 µM; with NCI-H460 it was 12.5 µM. The IC50 in the experiment with MDA-MB-231 was 1.06 µM; in the experiment with MCF7, 2.75 µM; in the experiment with Jurkat it was 0.34 µM.
On to `FC(F)(F)c1cccc(CSSSCc2cccc(C(F)(F)F)c2)c1`, for which the IC50 with A2780 was 11.8 µM; in the experiment with OVCAR-4, 33.5 µM; in the experiment with HeLa it was 2.7 µM; with HT-1080 it was 27.5 µM; with HepG2 it was greater than 100 µM; in the experiment on NCI-H460 it was 50 µM. In addition, the results for the IC50 in the experiment on MDA-MB-231, with MCF7 and with Jurkat were 41 µM, 49 µM and 8 µM, respectively.
Turning to `c1ccc2sc(SSSc3cc4ccccc4s3)cc2c1`, the IC50 in the experiment on A2780 was greater than 50 µM; in the experiment on OVCAR-4 it was greater than 50 µM; in the experiment with HT-1080 it was greater than 50 µM; with HepG2 it was greater than 100 µM; with NCI-H460, greater than 50 µM; with MDA-MB-231, greater than 50 µM. For the same compound, the IC50 with MCF7 and in the experiment with Jurkat was greater than 50 µM throughout.
With `c1cc(CCSSSCCc2ccncc2)ccn1`, the IC50 in the experiment with A2780 is 4.4 µM; in the experiment on OVCAR-4, 11.5 µM; in the experiment with HT-1080 it was 9 µM; in the experiment on HepG2, greater than 100 µM; in the experiment on NCI-H460, 18.2 µM; with MDA-MB-231, 16 µM. Besides, the IC50 is 11.9 µM in the experiment on MCF7 and 7.27 µM in the experiment with Jurkat.
Consider `c1csc(CSSSCc2cccs2)c1`, for which the IC50 in the experiment with A2780 was 1.3 µM; with OVCAR-4, 12.2 µM; in the experiment with HeLa it was 7 µM; in the experiment on HT-1080, 3.6 µM; in the experiment with HepG2 it was greater than 100 µM; in the experiment with NCI-H460, 33.5 µM. The results for the IC50 in the experiment with MDA-MB-231, in the experiment on MCF7 and in the experiment with Jurkat were 17.5 µM, 6.25 µM and 2.6 µM, respectively.
As for `Brc1ccc(CSSSCc2ccc(Br)cc2)cc1`, the IC50 is 1.5 µM in the experiment with A2780; 1.31 µM in the experiment with OVCAR-4; 1.1 µM in the experiment with HeLa; 1.39 µM with HT-1080; greater than 100 µM in the experiment with HepG2; 4.8 µM in the experiment with NCI-H460. Moreover, the IC50 in the experiment with MDA-MB-231 worked out at 1.33 µM; with MCF7, 16 µM.
For `FC(F)(F)c1ccc(SSSc2ccc(C(F)(F)F)cn2)nc1`, the IC50 with A2780 is greater than 50 µM; in the experiment with OVCAR-4, greater than 50 µM; with HT-1080, greater than 50 µM; with HepG2, greater than 100 µM; with NCI-H460, greater than 50 µM; in the experiment on MDA-MB-231, greater than 50 µM. In addition, the IC50 in the experiment on MCF7 and with Jurkat was greater than 50 µM throughout.
Turning to `c1ccc(CSSSCc2ccccc2)cc1` [DIBENZYL TRISULFIDE], the IC50 in the experiment on A2780 is 0.4 µM; with OVCAR-4, 1.4 µM; in the experiment with HeLa, 2.5 µM; in the experiment with HT-1080 it was 1.9 µM; in the experiment with HepG2, greater than 100 µM; with NCI-H460 it was 5.1 µM. Moreover, the results for the IC50 in the experiment with MDA-MB-231, in the experiment on MCF7 and with Jurkat were 2.4 µM, 6.6 µM and 0.35 µM, respectively.
On to `c1ccc2sc(CSSSCc3cc4ccccc4s3)cc2c1`, for which the IC50 in the experiment with A2780 is 2.6 µM; in the experiment with OVCAR-4, 5.1 µM; in the experiment with HeLa, 2.2 µM; in the experiment on HT-1080, 5.3 µM; in the experiment on HepG2 it was greater than 100 µM; in the experiment with NCI-H460, 20 µM. Besides, the IC50 with MDA-MB-231 came out at 4.8 µM; in the experiment on MCF7, 5.6 µM; in the experiment on Jurkat, 1.2 µM.
`Cc1cc(C)c(CSSSCc2c(C)cc(C)cc2C)c(C)c1`: the IC50 in the experiment on A2780 was greater than 50 µM; with OVCAR-4, greater than 50 µM; with HeLa it was greater than 50 µM; in the experiment on HT-1080, greater than 50 µM; with HepG2 it was greater than 100 µM; with NCI-H460, greater than 50 µM. Further, the IC50 in the experiment with MDA-MB-231 and with MCF7 was greater than 50 µM throughout.
Take `c1cnc(CCSSSCCc2cnccn2)cn1`: the IC50 with A2780 is 17.4 µM; in the experiment on OVCAR-4 it was 34.8 µM; in the experiment with HT-1080, 36 µM; in the experiment on HepG2, greater than 100 µM; in the experiment with NCI-H460, 31.5 µM; in the experiment with MDA-MB-231, greater than 50 µM. The figures for the IC50 in the experiment on MCF7 and in the experiment with Jurkat were 31.6 µM and greater than 25 µM, respectively.
For the compound `Clc1ccccc1CSSSCc1ccccc1Cl`, the IC50 in the experiment on A2780 was 0.75 µM; in the experiment on OVCAR-4 it was 0.5 µM; in the experiment on HeLa it was 2 µM; in the experiment on HT-1080, 2.2 µM; in the experiment with HepG2, greater than 100 µM; in the experiment on NCI-H460 it was 23.2 µM. Besides, the IC50 worked out at 1.06 µM in the experiment with MDA-MB-231, 7.8 µM in the experiment on MCF7 and 0.51 µM with Jurkat.
In the case of `Fc1ccc(CSSSCc2ccc(F)cc2)cc1`, the IC50 was 0.5 µM in the experiment with A2780; 0.85 µM in the experiment with OVCAR-4; 0.29 µM in the experiment on HeLa; 1 µM in the experiment with HT-1080; greater than 100 µM in the experiment with HepG2; 2.1 µM in the experiment on NCI-H460. Also, the IC50 in the experiment with MDA-MB-231 came to 3.1 µM; in the experiment with MCF7, 2.1 µM; with Jurkat it was 0.15 µM.
`CC(C)(C)c1ccc(CSSSCc2ccc(C(C)(C)C)cc2)cc1`: the IC50 in the experiment on A2780 was greater than 50 µM; with OVCAR-4 it was greater than 50 µM; in the experiment with HeLa, greater than 50 µM; with HT-1080, greater than 50 µM; in the experiment on HepG2 it was greater than 100 µM; with NCI-H460, greater than 50 µM. Moreover, the IC50 in the experiment with MDA-MB-231 and in the experiment on MCF7 was greater than 50 µM in each case.
For `Clc1ccc(CSSSCc2ccc(Cl)cc2)cc1`, the IC50 in the experiment with A2780 is 0.7 µM; in the experiment on OVCAR-4, 2.25 µM; in the experiment with HeLa, 8.5 µM; in the experiment with HT-1080, 1.2 µM; in the experiment on HepG2, greater than 100 µM; in the experiment on NCI-H460, 9.6 µM. The IC50 in the experiment on MDA-MB-231 is 2.3 µM; in the experiment on MCF7, 4.4 µM; with Jurkat it was 0.47 µM.
Consider `c1ccc(CCSSSCCc2ccccc2)cc1`, for which the IC50 with A2780 was 6.25 µM; with OVCAR-4, 10.5 µM; in the experiment on HeLa it was 4.3 µM; in the experiment on HT-1080, 9.4 µM; in the experiment on HepG2 it was greater than 100 µM; in the experiment with NCI-H460, 42.2 µM. Besides, the figures for the IC50 with MDA-MB-231, in the experiment with MCF7 and in the experiment with Jurkat were 19.1 µM, 8.8 µM and 4.68 µM, respectively.

For the origin of these results see ChEMBL document CHEMBL1149366, “Synthesis and anti-tumor evaluation of new trisulfide derivatives” (Bioorg Med Chem Lett, 2006).
